{"source": "patent US7582417B2", "about": "“Sequential reporter enzyme luminescence (SRL) methods and compositions for practicing the same” (The Board of Trustees of the Leland Stanford Junior …, priority 2006, dated 2009)", "key": {"[1]": {"biological_target": "T1, β-gal activity of implanted FLuc/LacZ cells (Escherichia coli, UniProt P00722)", "T1 sequence (P00722 whole entry)": "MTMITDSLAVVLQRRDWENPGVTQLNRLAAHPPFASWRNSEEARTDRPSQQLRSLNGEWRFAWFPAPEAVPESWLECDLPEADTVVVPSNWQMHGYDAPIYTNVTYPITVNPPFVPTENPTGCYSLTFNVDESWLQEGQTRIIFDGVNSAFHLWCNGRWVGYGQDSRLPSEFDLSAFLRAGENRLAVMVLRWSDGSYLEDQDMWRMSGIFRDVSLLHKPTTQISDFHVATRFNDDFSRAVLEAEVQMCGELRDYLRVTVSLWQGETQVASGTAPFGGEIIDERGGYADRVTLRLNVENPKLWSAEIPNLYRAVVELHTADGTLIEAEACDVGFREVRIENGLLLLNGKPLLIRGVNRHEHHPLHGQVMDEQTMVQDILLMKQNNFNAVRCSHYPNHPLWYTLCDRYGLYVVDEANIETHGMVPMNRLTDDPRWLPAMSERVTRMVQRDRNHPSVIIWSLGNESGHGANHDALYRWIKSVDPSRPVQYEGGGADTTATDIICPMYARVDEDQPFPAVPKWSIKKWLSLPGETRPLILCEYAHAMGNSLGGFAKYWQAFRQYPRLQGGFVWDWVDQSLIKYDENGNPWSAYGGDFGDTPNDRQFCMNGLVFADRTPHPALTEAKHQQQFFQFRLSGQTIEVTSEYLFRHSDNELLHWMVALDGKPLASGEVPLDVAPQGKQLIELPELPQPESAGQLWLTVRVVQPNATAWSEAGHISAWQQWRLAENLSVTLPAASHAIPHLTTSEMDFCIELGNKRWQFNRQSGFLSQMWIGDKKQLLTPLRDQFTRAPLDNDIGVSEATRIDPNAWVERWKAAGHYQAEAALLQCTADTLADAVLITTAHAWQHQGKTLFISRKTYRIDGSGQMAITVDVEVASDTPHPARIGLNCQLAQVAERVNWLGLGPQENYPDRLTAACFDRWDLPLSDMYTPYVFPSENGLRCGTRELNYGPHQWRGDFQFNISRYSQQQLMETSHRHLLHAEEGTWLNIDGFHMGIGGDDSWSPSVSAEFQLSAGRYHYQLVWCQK", "experiment": "Near-infrared fluorescent imaging of β-gal activity with DDAOG", "type": "in vivo, mouse", "design": "expressed in transfected cells; host or cells: C2C12 mouse myoblasts, retrovirally transduced (FLuc/LacZ cells)", "details": "1×10^6 cells, right vs left leg", "protocol": "The near-infrared imaging probe DDAOG (Molecular Probes) was injected intravenously (0.5 mg of DDAOG in 100 μl of DMSO and PBS (1:1)). NIRF reflectance imaging was performed using an IVIS-200 imager (Xenogen) with a custom filter set (excitation: 615-645; emission: 680-720 nm) (Omega Optical). Images were continuously acquired over 45 min after substrate injection and the images showing optimal signal-to-noise ratios were chosen for comparison."}, "[2]": {"details": "published value; cited from earlier work"}, "[3]": {"biological_target": "T2, somatostatin 2 receptor (SSTR2) (Homo sapiens, UniProt P30874)", "T2 construct": "expressed in transfected cells; host or cells: C2C12 myoblasts, retrovirally transduced; the in vivo cells also carry Ras and FLuc", "T2 sequence (P30874 whole entry)": "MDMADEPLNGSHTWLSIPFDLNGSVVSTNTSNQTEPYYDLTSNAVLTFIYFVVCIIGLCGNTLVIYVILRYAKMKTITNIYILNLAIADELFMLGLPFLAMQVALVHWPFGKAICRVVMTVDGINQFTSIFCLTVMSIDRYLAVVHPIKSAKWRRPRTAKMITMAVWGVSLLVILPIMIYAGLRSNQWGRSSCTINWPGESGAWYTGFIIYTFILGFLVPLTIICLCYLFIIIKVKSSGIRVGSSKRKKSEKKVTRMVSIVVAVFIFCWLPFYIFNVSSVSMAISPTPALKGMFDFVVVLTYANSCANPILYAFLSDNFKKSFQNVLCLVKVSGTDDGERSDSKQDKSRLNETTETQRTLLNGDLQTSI", "T2 sequence (P32121 whole entry partner)": "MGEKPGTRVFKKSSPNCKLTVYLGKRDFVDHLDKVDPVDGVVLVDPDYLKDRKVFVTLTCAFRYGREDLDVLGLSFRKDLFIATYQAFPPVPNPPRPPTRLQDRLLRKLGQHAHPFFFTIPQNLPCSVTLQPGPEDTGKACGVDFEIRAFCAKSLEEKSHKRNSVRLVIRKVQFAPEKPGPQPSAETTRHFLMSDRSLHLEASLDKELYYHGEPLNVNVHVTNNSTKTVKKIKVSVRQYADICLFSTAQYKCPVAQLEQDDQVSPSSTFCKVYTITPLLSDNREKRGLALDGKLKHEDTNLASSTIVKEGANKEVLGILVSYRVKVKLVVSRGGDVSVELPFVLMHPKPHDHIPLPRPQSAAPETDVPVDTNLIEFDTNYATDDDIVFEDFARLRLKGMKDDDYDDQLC", "experiment": "In vivo luminescent imaging of somatostatin 2 receptor activation (SSTR2/Fluc cells in BALB/c nude mice, Lugal)", "details": "after octreotide i.p.", "description": "All protocols were approved by the Administrative Panel on Laboratory Animal Care at Stanford University School of Medicine. BALB/c nude were obtained from the Stanford University in-house colony. C2C12 myoblasts were harvested and suspended in 0.5% BSA in PBS at a final concentration of 10^8 cells/ml for injection. 4×10^6 cells carrying the β2/arrestin β-gal/Ras/FLuc or the SSTR2/arrestin β-gal/Ras/FLuc constructs were subcutaneously into the back of mice (2 injections/mouse), and allowed to grow into small tumors over 7 to 14 days.\nImaging was carried out using a Xenogen-100 device as previously described. Briefly, the system is composed of a light-tight imaging chamber, a digital CCD camera colled by a cryogenic refrigeration unit and a computer system (Living Image™ 2.50 software, Xenogen, Alameda).\nWe engineered new cell lines carrying the SSTR2/arrestin-β-galactosidase construct by retroviral transduction with the Fluc and ras genes (SSTR2/Fluc)."}, "[4]": {"biological_target": "T1, β-gal activity of implanted FLuc/LacZ cells", "protocol": "Imaging was performed using a Xenogen-100 device as previously described (Cao et al., supra). Briefly, the system is comprised of a light-tight imaging chamber, a cooled digital CCD camera with a cryogenic refrigeration unit and the appropriate computer system (Living Image™ 2.50 software, Xenogen, Alameda). […] C2C12 myoblasts were harvested and suspended in 0.5% BSA in PBS at a final concentration of 10^8 cells/ml for injection. For experiment shown in FIG. 1e, 10^6 cells expressing LacZ and FLuc (FLuc/LacZ cells) were injected into the right tibialis anterior muscle (TA) and 10^6 cells expressing FLuc only (FLuc cells) into the left TA of BALB/c nude mice. […] For experiment shown in FIGS. 2a and 2b, a range of cell numbers between 5×10^4 and 2×10^6 were injected subcutaneously in 10 different locations of the back of BALB/c nude mice."}, "[5]": {"biological_target": "β-gal activity in FLuc/LacZ C2C12 cells (Escherichia coli, UniProt P00722)", "sequence (P00722 whole entry)": "as the sequence (P00722 whole entry) above", "protocol": "The parental MFG-IRES-lyt-2 construct was used to generate the lyt-2 expressing myoblasts. Retroviral transduction was performed using the ecotropic ΦNX packaging cell line (generous gift of GP Nolan). This line was transiently transfected with the proviral constructs using Fugene transfection reagent (Boehringer Mannheim). […] Polybrene was added to a final concentration of 8 μg/ml (Sigma) and cells were spun at 2,000 RPM in a Beckman GS-6 centrifuge. Cells transduced with the Luciferase-IRES-lyt-2 construct or the parental MFG-IRES-lyt-2 construct were stained with an anti-lyt-2 antibody conjugated to APC (BD Pharmingen). Cells were sorted by FACS on a Becton Dickinson flow cytometer with MoFlo electronics. […] For the in vitro cell studies, C2C12 cells were seeded in growth medium into a 384-well dish. […] The plate was read on a Tropix TR717 luminometer at room temperature with an integration time of 1 s/well. […] Cell lysates were prepared by aspirating the media and adding 15 ul of lysis buffer (1% Triton-X100, 50 mM Tris-HCl, 10 mM MgCl2, 10 mM DTT, 1 mM ATP, pH 7.5). For wells with intact cells, 15 ul of PBS was substituted for lysis buffer. The substrates were added at equivalent volumes to bring the reaction volume to 30 ul."}, "[6]": {"biological_target": "T3, mouse angiotensin receptor 1 (AGTR1) (Mus musculus, UniProt P29754)", "T3 construct": "expressed in transfected cells; host or cells: C2C12 myoblasts, retrovirally transduced", "T3 sequence (P29754 whole entry)": "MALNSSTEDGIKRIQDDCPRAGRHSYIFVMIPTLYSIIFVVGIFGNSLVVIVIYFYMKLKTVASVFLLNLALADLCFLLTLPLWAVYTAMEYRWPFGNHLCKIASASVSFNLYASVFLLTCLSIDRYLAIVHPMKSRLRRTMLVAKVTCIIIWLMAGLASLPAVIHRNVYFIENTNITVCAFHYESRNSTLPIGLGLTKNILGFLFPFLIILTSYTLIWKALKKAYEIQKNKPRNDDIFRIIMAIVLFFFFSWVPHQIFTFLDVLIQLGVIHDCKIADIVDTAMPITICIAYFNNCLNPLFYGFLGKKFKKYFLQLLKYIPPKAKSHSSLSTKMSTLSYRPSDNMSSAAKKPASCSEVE", "T3 sequence (P32121 whole entry partner)": "as the sequence (P32121 whole entry partner) above", "experiment": "GPCR/arrestin β-gal complementation assay, AGTR1 cell line", "type": "cell-based", "quoted_text": "Cells expressing the GPCR-α* and β-arrestin2-ω fusions were seeded at 20,000 cells/well in a 96-well dish overnight. Ligand was added for 1 hour. Media is aspirated and 50 ul of lysis solution (buffer A) and substrate (Gal-screen) in a 25:1 ratio was added to each well. The plates were incubated for 60-90 min at room temperature before reading in a TR717 luminometer with an integration time of 1 second. EC50 values were calculated using non-linear regression with a variable slope sigmoidal dose response algorithm in Prism software (Graphpad).\nTo test the sensitivity of the GPCR/arrestin assay, each cell line was plated in a 96-well dish and treated for 60 minutes with escalating doses of the indicated agonist (FIG. 9B). β-gal activity was measured using a luminescent substrate (Tropix)."}}, "data": [{"compound": "CC1(C)C2=C(Cl)C(=O)C(Cl)=CC2=Nc2ccc(O[C@@H]3O[C@H](CO)[C@H](O)[C@H](O)[C@H]3O)cc21", "note": "[DDAOG, 7-hydroxy-9H-(1,3-dichloro-9,9-dimethylacridin-2-one) β-D-galactoside]", "values": [{"measurement": "signal-to-noise ratio, fluorescence imaging, leg muscles", "setting": "[1]", "value": 2.8, "unit": "fold"}]}, {"compound": "CC(C)NCC(O)c1ccc(O)c(O)c1", "note": "(stereo not drawn) [isoproterenol]", "values": [{"measurement": "serum half life", "setting": "[2]", "value": "approx. 2 hours"}]}, {"compound": "C[C@@H](O)[C@@H]1NC(=O)[C@H](CCCCN)NC(=O)[C@@H](Cc2c[nH]c3ccccc23)NC(=O)[C@H](Cc2ccccc2)NC(=O)[C@@H](NC(=O)[C@H](N)Cc2ccccc2)CSSC[C@@H](C(=O)N[C@H](CO)[C@@H](C)O)NC1=O", "note": "[octreotide]", "values": [{"measurement": "serum half life", "setting": "[2]", "value": "approx. 6 hours"}, {"measurement": "time for luminescence to return to baseline", "setting": "[3]", "value": 24, "unit": "h"}, {"measurement": "time for luminescence to return to baseline", "setting": "[3]; listed as Octreotide", "value": "≤ 24", "unit": "h"}]}, {"compound": "D-luciferin-O-β-galactopyranoside [Lugal]", "values": [{"measurement": "bioluminescence signal of FLuc/LacZ cells relative to FLuc cells", "setting": "[4]; 1×10^6 cells per tibialis anterior, right vs left leg, i.p. Lugal", "value": "30-200 fold"}, {"measurement": "signal-to-noise ratio, luminescence imaging, leg muscles", "setting": "[4]; 1×10^6 cells, right vs left leg", "value": 429, "unit": "fold"}, {"measurement": "signal-to-noise ratio of Lugal relative to DDAOG, deeper tissues (skeletal muscle)", "setting": "[4]; higher with Lugal", "value": 150, "unit": "fold"}, {"measurement": "Lugal concentration at which strong luminescent signals were generated", "setting": "[5]; FLuc/LacZ C2C12 cells, 384-well dish, concentrations as low as", "value": 10, "unit": "µg/mL"}, {"measurement": "Lugal concentration at which a measurable signal was generated without β-gal", "setting": "[5]; cells expressing FLuc alone, only at the highest concentration", "value": 1000, "unit": "µg/mL"}]}, {"compound": "angiotensin (DRVYIHPF; Angiotensin-2; UniProt P01019 25-32, looked up) [AGTR1 agonist obtained from Sigma]", "values": [{"measurement": "EC50", "setting": "[6]", "value": "in good agreement with radiolabeled ligand binding assays"}, {"measurement": "increase in β-galactosidase activity", "setting": "[6]; 60 minutes agonist", "value": "greater than 15 fold"}]}]}
